The values that follow come from patent US20250161241A1, “CYSTEAMIDES, THERAPEUTIC COMPOSITIONS THEREOF, AND RELATED METHODS” (Boyce Thompson Institute for Plant Research, Inc., priority 2022, published 2025).

For one assay, the system named is brain-resident Tregs. Kind of assay: brain-resident Treg levels in mice after oral gavage (flow cytometry, i.v. CD45 labeling). It is filed as in vivo, mouse. The settings on record: SPF mice, oral gavage 50 mg/kg/day, 14 days, vs vehicle; brain tissue; FIG. 66 top row. On the procedure:
(§1) Butyrate-MCY (dissolved in water) was delivered by oral gavage at a rate of 50 mg/kg body weight per day in a volume of 100 μL for two weeks.
For isolation of brain leukocyte populations, mice were euthanized with CO2 and perfused through the left ventricle with 20 mL PBS. The whole brain was removed and placed in 2.5 mL digestion buffer (PBS, 5% FCS, 1 mM HEPES) before being finely chopped. Collagenase D (Roche, 400 U) was added to the mixture, which was then incubated at 37° C. for 30 min before adding 50 μL 0.5 M EDTA, followed by a 5-min incubation. […]
(§2) All antibodies above were used at 1:200 dilutions, except FoxP3 were used at 1:100 dilutions. Stained cells were analyzed on a 5 laser, 18 color custom-configuration BD LSRFortessa (BD). Data were collected using BD FACSDiva version 9.0 and analyzed using FlowJo (version 10.7.1, Tree Star).
For functional evaluation, the previously unreported MCY conjugates of butyrate were prioritized, given that their microbiota-dependent production is conserved in humans and considering that the corresponding parent metabolite, butyrate, serves important roles in immune homeostasis. […] SPF mice were supplemented via oral gavage with butyrate-MCY (50 mg/kg/day, 100 μL/day, 14 days), which was identified in the brain and serum metabolomes and the levels of brain-resident Tregs was measured. […]
For orientation: Flow cytometry measures light scatter and fluorescence of single cells or particles in a stream.

In the next assay the test system is gut Tregs (colon tissue). Kind of assay: colon (gut) Treg levels in mice after oral gavage (flow cytometry). It is filed as in vivo, mouse. Conditions: SPF mice, oral gavage 50 mg/kg/day, 14 days, vs vehicle, FIG. 66 bottom row. On the procedure:
as §1
Mouse colons were removed, cleaned of attached fat tissues, and washed in ice-cold PBS (Sigma-Aldrich). They were then opened longitudinally and washed again in ice-cold PBS. Dissociation of epithelial cells was performed by shaking at 37° C. in HBSS (Sigma-Aldrich) containing 10 mM HEPES, 10 mM EDTA (Thermo Fisher Scientific) and 2 mM dithiothreitol (DTT) two times for 15 min each. After each step, samples were vortexed, and the supernatant containing the epithelial fraction was removed. […]
as §2
For functional evaluation, the previously unreported MCY conjugates of butyrate were prioritized, given that their microbiota-dependent production is conserved in humans and considering that the corresponding parent metabolite, butyrate, serves important roles in immune homeostasis. […] FIG. 66 (top row) provides representative flow cytometry plots of Tregs and quantification of Tregs as percentage of all CD4+ T cells in brain tissue from vehicle or butyrate-MCY treated mice. […]

`CCCC(=O)NCCSC` [butyrate-MCY]: the “percentage of brain-resident Tregs amongst CD4+ T cells” value in the assay on brain-resident Tregs is “significantly decreased”. Besides, the “percentage of gut Tregs amongst CD4+ T cells” value in the assay on gut Tregs (colon tissue) is “significantly decreased”.
